One compound from ChEMBL document CHEMBL3085700 (J Med Chem, 2013) can be followed below.

SMILES strings stand for the structures. Active and inactive are the calls of the source. No cut-off for these calls is given here.

The species entered for one assay is Homo sapiens. In words: Selectivity ratio for human recombinant FAAH over human recombinant COX-2.
In assay [1] the target is T1, Monoacylglycerol lipase ABHD6 (Homo sapiens) (UniProt Q9BV23).
T1 sequence (whole entry): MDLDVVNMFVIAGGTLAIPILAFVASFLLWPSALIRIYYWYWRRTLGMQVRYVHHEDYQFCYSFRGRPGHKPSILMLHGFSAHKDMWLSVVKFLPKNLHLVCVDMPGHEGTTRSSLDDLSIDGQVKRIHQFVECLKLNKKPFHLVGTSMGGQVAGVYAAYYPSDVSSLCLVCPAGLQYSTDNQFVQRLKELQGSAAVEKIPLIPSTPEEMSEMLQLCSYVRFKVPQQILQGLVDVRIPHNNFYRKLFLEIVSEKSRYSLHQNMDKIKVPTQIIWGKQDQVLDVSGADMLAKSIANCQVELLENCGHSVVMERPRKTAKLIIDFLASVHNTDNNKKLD
Briefly: Inhibition of human ABHD6 overexpressed in HEK293 cells assessed as 2-AG hydrolysis at 1 uM by fluorescent glycerol assay. The format is cell-based.

For assay [2], the target named is T2, Prostaglandin G/H synthase 2 (Homo sapiens) (UniProt P35354).
T2 sequence (whole entry): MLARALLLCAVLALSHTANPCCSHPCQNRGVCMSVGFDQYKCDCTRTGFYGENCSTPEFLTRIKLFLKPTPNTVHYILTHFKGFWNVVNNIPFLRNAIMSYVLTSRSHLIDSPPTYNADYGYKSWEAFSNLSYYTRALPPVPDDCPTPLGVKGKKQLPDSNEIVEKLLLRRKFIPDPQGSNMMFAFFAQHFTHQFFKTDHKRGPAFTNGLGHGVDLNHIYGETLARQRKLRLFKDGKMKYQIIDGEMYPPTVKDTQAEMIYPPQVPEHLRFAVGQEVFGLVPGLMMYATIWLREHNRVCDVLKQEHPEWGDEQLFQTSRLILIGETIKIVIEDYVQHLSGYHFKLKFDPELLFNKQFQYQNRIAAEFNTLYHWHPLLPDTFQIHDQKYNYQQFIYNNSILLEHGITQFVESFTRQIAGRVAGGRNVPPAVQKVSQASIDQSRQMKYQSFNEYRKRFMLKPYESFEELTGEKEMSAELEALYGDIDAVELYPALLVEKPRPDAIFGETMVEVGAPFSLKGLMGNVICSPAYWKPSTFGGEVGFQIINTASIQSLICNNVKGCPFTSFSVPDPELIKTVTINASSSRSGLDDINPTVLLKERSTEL
In words: Inhibition of human recombinant COX-2 using arachidonic acid as substrate assessed as oxygen consumption at 30 to 100 uM measured within 10 to 50 secs relative to control.

In general, inhibition refers to the percentage by which the read-out fell short of the control. For `COc1nn([C@@H](C)c2ccc(CC(C)C)cc2)c(=O)o1`, the Selectivity ratio in the assay listed under Homo sapiens was above 900. In addition, the inhibition result in assay [1] was “inactive”. For the same compound, the inhibition in assay [2] came out at 30%.
